Data as given in US20250381168A1, “VLA4 INHIBITORS AND USES THEREOF” (Washington University, priority 2022, published 2025).
Entries after “also recorded” stand apart in the source; their conditions may differ. Where two headings read alike, the source gives them in different places. Each block holds one molecule with its values, some of them ahead of it.

Legend:
integrin a4b7 = integrin a4b7 (Homo sapiens (Human), UniProt P13612+P26010); test: a4b7 solid phase receptor assay (SPRA); conditions: recombinant human a4b7 binding to plate-coated human VCAM1 (TABLE 4)
Chain of integrin a4b7 (P13612 34-970): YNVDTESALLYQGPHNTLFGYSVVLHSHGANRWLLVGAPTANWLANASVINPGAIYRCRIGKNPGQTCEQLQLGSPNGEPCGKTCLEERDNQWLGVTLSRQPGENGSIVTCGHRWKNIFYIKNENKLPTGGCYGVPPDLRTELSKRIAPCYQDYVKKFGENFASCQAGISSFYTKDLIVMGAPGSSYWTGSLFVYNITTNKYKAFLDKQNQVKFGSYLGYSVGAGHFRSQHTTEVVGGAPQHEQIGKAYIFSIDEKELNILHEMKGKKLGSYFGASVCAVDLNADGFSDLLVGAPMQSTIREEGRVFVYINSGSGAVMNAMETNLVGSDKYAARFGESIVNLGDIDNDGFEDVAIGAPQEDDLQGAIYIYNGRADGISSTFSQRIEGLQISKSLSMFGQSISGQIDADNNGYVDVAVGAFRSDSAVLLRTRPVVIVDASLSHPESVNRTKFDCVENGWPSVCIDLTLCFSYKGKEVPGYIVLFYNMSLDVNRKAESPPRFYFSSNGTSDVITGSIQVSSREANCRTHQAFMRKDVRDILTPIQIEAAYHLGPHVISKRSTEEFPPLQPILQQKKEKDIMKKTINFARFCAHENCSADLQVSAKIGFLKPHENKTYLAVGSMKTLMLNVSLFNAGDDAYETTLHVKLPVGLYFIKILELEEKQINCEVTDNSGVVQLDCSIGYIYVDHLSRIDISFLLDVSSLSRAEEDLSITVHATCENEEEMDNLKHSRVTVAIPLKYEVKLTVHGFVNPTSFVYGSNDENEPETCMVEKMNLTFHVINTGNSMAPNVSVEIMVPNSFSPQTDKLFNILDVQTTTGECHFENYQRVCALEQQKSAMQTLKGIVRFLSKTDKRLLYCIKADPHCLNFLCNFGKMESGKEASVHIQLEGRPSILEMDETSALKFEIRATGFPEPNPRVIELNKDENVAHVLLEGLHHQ
Chain of integrin a4b7 (P26010 20-723): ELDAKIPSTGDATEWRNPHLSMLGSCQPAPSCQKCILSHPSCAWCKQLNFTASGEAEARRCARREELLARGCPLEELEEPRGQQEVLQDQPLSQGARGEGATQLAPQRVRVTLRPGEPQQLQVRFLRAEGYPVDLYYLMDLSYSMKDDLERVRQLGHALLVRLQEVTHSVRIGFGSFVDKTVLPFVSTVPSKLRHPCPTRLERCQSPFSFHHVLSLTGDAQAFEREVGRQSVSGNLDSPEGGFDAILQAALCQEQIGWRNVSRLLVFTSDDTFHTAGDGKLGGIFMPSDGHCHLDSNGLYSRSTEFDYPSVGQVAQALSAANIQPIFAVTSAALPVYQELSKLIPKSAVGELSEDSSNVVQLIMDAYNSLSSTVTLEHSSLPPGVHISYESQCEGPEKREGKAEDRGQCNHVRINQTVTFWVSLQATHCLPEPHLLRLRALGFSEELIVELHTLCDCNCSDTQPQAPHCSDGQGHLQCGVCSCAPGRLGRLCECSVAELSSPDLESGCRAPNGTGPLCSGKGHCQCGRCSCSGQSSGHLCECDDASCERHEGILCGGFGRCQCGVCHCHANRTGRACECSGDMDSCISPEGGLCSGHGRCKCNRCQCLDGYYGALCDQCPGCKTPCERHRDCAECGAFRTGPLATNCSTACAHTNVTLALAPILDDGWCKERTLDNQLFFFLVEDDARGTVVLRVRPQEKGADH
Method: Wells were washed 3 times with TBS+ and blocking buffer (TBS+ with 1% bovine serum albumin), the plate was incubated for 1 hr at 37° C., and then washed 3× with TBS+ buffer. Recombinant human a4b7 (R & D Systems) was diluted to 1 μg/ml in TBS+/0.1% bovine serum albumin. Test compounds were diluted into the integrin solution and added to the washed ligand-coated plate according to a standard template with each sample repeated in triplicate. After incubation for 2 hr at room temperature, the plate was washed 3× with 150 μl of TBS+ buffer. To each well, biotinylated anti-A4 antibody (R & D Systems) at 1 μg/ml in TBS+/0.1% BSA was added and the plate covered and incubated for 1 hr at room temperature. After washing the plate 3× with TBS+ buffer, streptavidin-conjugated horseradish peroxidase (R & D Systems) diluted in TBS+ blocking buffer was added to the wells and the plate incubated for 20 min at room temperature. The plate was washed 3× with TBS+ buffer followed by addition of 50 μl of TMB substrate (Sigma T4444). After incubation for 20 min at room temperature, plates were stopped with TMB stop solution (Sigma S5689) by colorimetric detection at 450 nm wavelength using a Tecan Safire II plate reader.

VLA-4 (a4b1) = VLA-4 (a4b1) (Homo sapiens (Human), UniProt P05556+P13612); test: sVCAM flow cytometry cell-based assay (inhibition of soluble VCAM-1 binding to G2 ALL cells);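 also: compounds at 0.1 to 1000 nM preincubated 30 min with G2 ALL cells, then VCAM/Fc added for 30 min, bound VCAM-1 detected by PE secondary antibody, percent binding cells by flow cytometry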
Chain of VLA-4 (a4b1) (P13612 34-1032): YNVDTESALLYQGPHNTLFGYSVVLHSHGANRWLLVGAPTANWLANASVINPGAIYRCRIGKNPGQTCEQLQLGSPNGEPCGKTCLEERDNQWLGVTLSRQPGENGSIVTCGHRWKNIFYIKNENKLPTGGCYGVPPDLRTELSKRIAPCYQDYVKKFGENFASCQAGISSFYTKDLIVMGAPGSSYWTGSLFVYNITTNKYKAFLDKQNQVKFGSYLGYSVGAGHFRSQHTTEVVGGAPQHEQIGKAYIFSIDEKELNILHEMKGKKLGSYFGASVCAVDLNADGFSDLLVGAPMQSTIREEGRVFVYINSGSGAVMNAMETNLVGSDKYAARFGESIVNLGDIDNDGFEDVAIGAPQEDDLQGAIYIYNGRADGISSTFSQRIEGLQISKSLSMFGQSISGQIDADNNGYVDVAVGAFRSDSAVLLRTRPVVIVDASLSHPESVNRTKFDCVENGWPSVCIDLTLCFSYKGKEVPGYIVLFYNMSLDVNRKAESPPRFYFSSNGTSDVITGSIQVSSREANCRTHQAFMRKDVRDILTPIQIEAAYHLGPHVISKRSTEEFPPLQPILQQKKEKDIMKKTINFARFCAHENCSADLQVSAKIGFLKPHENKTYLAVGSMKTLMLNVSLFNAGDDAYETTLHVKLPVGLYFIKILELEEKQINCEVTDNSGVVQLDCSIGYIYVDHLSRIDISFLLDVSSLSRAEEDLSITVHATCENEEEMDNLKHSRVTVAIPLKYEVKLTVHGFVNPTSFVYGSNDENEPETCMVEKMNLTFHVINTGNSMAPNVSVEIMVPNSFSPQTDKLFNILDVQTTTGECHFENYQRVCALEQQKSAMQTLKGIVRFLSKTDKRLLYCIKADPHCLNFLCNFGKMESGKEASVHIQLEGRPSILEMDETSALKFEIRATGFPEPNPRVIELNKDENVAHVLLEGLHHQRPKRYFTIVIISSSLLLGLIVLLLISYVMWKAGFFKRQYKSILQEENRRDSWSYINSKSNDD
Chain of VLA-4 (a4b1) (P05556 21-798): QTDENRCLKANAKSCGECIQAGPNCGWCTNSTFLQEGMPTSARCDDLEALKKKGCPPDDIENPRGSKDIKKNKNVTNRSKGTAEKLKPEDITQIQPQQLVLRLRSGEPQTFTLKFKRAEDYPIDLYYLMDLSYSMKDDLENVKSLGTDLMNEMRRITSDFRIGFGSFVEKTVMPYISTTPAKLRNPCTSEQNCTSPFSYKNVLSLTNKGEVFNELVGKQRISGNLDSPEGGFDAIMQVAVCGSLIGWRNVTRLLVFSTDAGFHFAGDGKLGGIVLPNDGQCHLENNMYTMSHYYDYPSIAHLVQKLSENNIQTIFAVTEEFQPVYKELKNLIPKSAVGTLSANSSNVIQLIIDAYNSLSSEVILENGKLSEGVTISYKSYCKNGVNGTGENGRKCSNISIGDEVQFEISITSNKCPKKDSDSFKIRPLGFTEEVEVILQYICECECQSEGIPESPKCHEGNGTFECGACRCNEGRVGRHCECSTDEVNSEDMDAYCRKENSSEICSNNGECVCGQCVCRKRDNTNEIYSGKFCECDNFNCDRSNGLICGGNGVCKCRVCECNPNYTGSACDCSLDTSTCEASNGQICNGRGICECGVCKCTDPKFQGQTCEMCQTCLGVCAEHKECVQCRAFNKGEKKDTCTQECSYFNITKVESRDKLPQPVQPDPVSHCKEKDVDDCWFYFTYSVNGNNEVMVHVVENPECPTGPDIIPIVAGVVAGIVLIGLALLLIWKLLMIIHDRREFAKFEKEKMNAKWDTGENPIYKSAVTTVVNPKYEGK
Method: VLA-4 (a4b1) inhibitor compounds were tested for their ability to inhibit the binding of soluble VCAM-1 to human G2 acute lymphoblastic leukemia (ALL) cells. Briefly, G2 ALL cells are pre-incubated with increasing concentrations (0.1 to 1000 nM) of compounds for 30 minutes. Soluble VCAM/Fc chimera protein (R & D systems) is then added to the mixture and the cells incubated for an additional 30 minutes. Afterwards, cells are washed and VCAM-1 is detected using a PE-conjugated secondary polyclonal antibody. In each experiment, an aliquot of cells are stained with isotype control antibodies to serve as a negative control. The percentage of VCAM-1 binding cells was then determined by flow cytometry.

[1] = test system: hematopoietic stem/progenitor cells (HSPCs); test: HSPC mobilization into peripheral blood, colony forming unit (CFU) assay; as to HSPC mobilization, result in words: test concentration or dose not given here; as to No. CFU (×10^3)/mL ± SD, 6 hr: test concentration or dose not given here; conditions: mice; for No. CFU (x10^3)/mL ± SD, 2 hr: 2 hr post dose (TABLE 11); for No. CFU (x10^3)/mL ± SD, 4 hr: 4 hr post dose (TABLE 11); for No. CFU (x10^3)/mL ± SD, 6 hr: 6 hr post dose (TABLE 11); for No. CFU (x10^3)/mL ± SD, 24 hr: 24 hr post dose (TABLE 11); for No. CFU (×10^3)/mL ± SD, 1 hr: 1 hr post dose (TABLE 20); for No. CFU (×10^3)/mL ± SD, 8 hr: 8 hr post dose (TABLE 20)
[2] = inhibition of sVCAM-1 binding to human G2 ALL cells (TABLE 3), read-out: SVCAM-1, IC50
[3] = as listed in TABLE 9, read-out: sVCAM IC50
[4] = as listed in TABLE 11, read-out: sVCAM IC50
[5] = single dose, peripheral blood, 2 hr post dose (TABLE 9)
[6] = single dose, peripheral blood, 4 hr post dose (TABLE 9)
[7] = single dose, peripheral blood, 6 hr post dose (TABLE 9)
[8] = as listed in TABLE 20, read-out: sVCAM IC50
[9] = single dose, peripheral blood, 4 hr post dose (TABLE 20)

- IC50 (integrin a4b7): > 10000 nM
SMILES: Cc1ccccc1NC(=O)Nc1ccc(CC(=O)N(C)[C@@H](CC(C)C)C(=O)NCC[C@H](NC(=O)[C@@H]2CCCN2S(=O)(=O)c2cc(Cl)cc(Cl)c2)C(=O)O)cc1 [BIO5192]

- IC50 (VLA-4 (a4b1); as listed in TABLE 8, read-out: sVCAM IC50): 0.552 nM
- IC50 (VLA-4 (a4b1); [2]): 0.552 nM
SMILES: COCCOCCOCCOCCOCCOCCOCCOCCOCCOCCOCCOCCOCCOCCOCCOCCOCCOCCOCCOCCOCCOCCOCCOCCOCCOCCOCCOCCOCCOCCOCCOCCOCCOCCOCCOCCn1cc(COCc2cc(OC)c(-c3ccc(C[C@H](NC(=O)[C@@H]4CCCN4S(=O)(=O)c4cc(Cl)cc(Cl)c4)C(=O)O)cc3)c(OC)c2)nn1 [Example C10, (S)-3-(4′-(((1-(2,5,8,11,14,17,20,23,26,29,32,35,38,41,44,47,50,53,56,59,62,65,68,71,74,77,80,83, 86,89,92,95,98,101,104,107-hexatriacontaoxanonahectan-109-yl)-1H-1,2,3-triazol-4-yl)methoxy)methyl)-2′,6′-dimethoxy-[1,1′-biphenyl]-4-yl)-2-((S)-1-((3,5-dichlorophenyl)sulfonyl)pyrrolidine-2-carboxamido)propanoic Acid]
- HSPC mobilization, result in words ([1]; single dose): returning to baseline by 4 hours; also recorded: inferior mobilization at 4 hours compared to Example 3
- No. CFU (×10^3)/mL ± SD, 0.25 hr ([1]; single dose, peripheral blood, 0.25 hr post dose (TABLE 8)): 3.87 ± 1.33 (×10^3)/mL
- No. CFU (×10^3)/mL ± SD, 2 hr ([1]; single dose, peripheral blood, 2 hr post dose (TABLE 8)): 3.37 ± 1.12 (×10^3)/mL
- No. CFU (×10^3)/mL ± SD, 4 hr ([1]; single dose, peripheral blood, 4 hr post dose (TABLE 8)): 0.90 ± 0.52 (×10^3)/mL

- IC50 (VLA-4 (a4b1); [3]): 0.573 nM
- IC50 (VLA-4 (a4b1); [4]): 0.573 nM
- IC50 (VLA-4 (a4b1); as listed in TABLE 17, read-out: sVCAM IC50): 0.573 nM
- IC50 (VLA-4 (a4b1); [2]): 0.573 nM
SMILES: COCCOCCOCCOCCOCCOCCOCCOCCOCc1cc(OC)c(-c2ccc(C[C@H](NC(=O)[C@@H]3CCCN3S(=O)(=O)c3cc(Cl)cc(Cl)c3)C(=O)O)cc2)c(OC)c1 [Example C12, (2S)-2-[[(2S)-1-(3,5-dichlorophenyl)sulfonylpyrrolidine-2-carbonyl]amino]-3-[4-[2,6-dimethoxy-4-[2-[2-[2-[2-[2-[2-[2-(2-methoxyethoxy)ethoxy]ethoxy]ethoxy]ethoxy]ethoxy]ethoxy]ethoxymethyl]phenyl]phenyl]propanoic Acid]
- time to which HSPC mobilization is extended after a single dose [1]: ≤ 2 h
- No. CFU (×10^3)/mL ± SD, 2 hr ([1]; alone or in combination with Plerixafor and tGroβ, peripheral blood, 2 hr (TABLE 17)): 4.02 ± 1.99 (×10^3)/mL
- No. CFU (×10^3)/mL ± SD, 4 hr ([1]; alone or in combination with Plerixafor and tGroβ, peripheral blood, 4 hr (TABLE 17)): 0.90 ± 0.61 (×10^3)/mL
- No. CFU (×10^3)/mL ± SD, 6 hr ([1]; alone or in combination with Plerixafor and tGroβ, peripheral blood, 6 hr (TABLE 17)): 0.25 ± 0.08 (×10^3)/mL
- HSPC mobilization, result in words ([1]; single dose): returning to baseline by 4 hours and clearly at baseline by 6 hours; also recorded: do not provide the same extended mobilization as the 24 PEG unit analogues
- No. CFU (×10^3)/mL ± SD, 2 hr [1, 5]: 2.42 ± 1.06 (×10^3)/mL
- No. CFU (x10^3)/mL ± SD, 2 hr ([1]; single dose, peripheral blood): 0.78 ± 0.17 (x10^3)/mL
- No. CFU (×10^3)/mL ± SD, 4 hr [1, 6]: 1.19 ± 0.53 (×10^3)/mL
- No. CFU (x10^3)/mL ± SD, 4 hr ([1]; single dose, peripheral blood): 0.58 ± 0.19 (x10^3)/mL
- No. CFU (×10^3)/mL ± SD, 6 hr [1, 7]: 0.24 ± 0.15 (×10^3)/mL
- No. CFU (x10^3)/mL ± SD, 6 hr ([1]; single dose, peripheral blood): 0.22 ± 0.10 (x10^3)/mL
- No. CFU (x10^3)/mL ± SD, 24 hr ([1]; single dose, peripheral blood): 0.14 ± 0.07 (x10^3)/mL

- IC50 (VLA-4 (a4b1); [3]): 0.673 nM
- IC50 (VLA-4 (a4b1); [2]): 0.673 nM
SMILES: COCCOCCOCCOCCOCCOCCOCCOCCOCCOCCOCCOCCOCc1cc(OC)c(-c2ccc(C[C@H](NC(=O)[C@@H]3CCCN3S(=O)(=O)c3cc(Cl)cc(Cl)c3)C(=O)O)cc2)c(OC)c1 [Example C13, (S)-2-((S)-1-((3,5-dichlorophenyl)sulfonyl)pyrrolidine-2-carboxamido)-3-(2′,6′-dimethoxy-4′-(2,5,8,11,14,17,20,23,26,29,32,35,38-tridecaoxanonatriacontyl)-[1,1′-biphenyl]-4-yl)propanoic Acid]
- HSPC mobilization, result in words ([1]; single dose): returning to baseline by 4 hours and clearly at baseline by 6 hours
- No. CFU (×10^3)/mL ± SD, 2 hr [1, 5]: 2.01 ± 0.75 (×10^3)/mL
- No. CFU (×10^3)/mL ± SD, 4 hr [1, 6]: 0.41 ± 0.19 (×10^3)/mL
- No. CFU (×10^3)/mL ± SD, 6 hr [1, 7]: 0.10 ± 0.04 (×10^3)/mL

- IC50 (VLA-4 (a4b1); [3]): 0.702 nM
- IC50 (VLA-4 (a4b1); as listed in TABLE 10, read-out: sVCAM IC50): 0.702 nM
- IC50 (VLA-4 (a4b1); [2]): 0.702 nM
SMILES: COCCOCCOCCOCCOCCOCCOCCOCCOCCOCCOCCOCCOCCOCCOCCOCCOCc1cc(OC)c(-c2ccc(C[C@H](NC(=O)[C@@H]3CCCN3S(=O)(=O)c3cc(Cl)cc(Cl)c3)C(=O)O)cc2)c(OC)c1 [Example C14, (S)-3-(4′-(2,5,8,11,14,17,20,23,26,29,32,35,38,41,44,47,50-heptadecaoxahenpentacontyl)-2′,6′-dimethoxy-[1,1′-biphenyl]-4-yl)-2-((S)-1-((3,5-dichlorophenyl)sulfonyl)pyrrolidine-2-carboxamido)propanoic Acid]
- HSPC mobilization, result in words ([1]; single dose): returning to baseline by 4 hours and clearly at baseline by 6 hours; also recorded: returning to baseline at 4 hours and affords no mobilization effects at 6 hours
- No. CFU (×10^3)/mL ± SD, 2 hr [1, 5]: 3.17 ± 1.17 (×10^3)/mL
- No. CFU (×10^3)/mL ± SD, 2 hr ([1]; single dose, peripheral blood, 2 hr post dose (TABLE 10)): 3.40 ± 1.42 (×10^3)/mL
- No. CFU (×10^3)/mL ± SD, 4 hr [1, 6]: 0.50 ± 0.25 (×10^3)/mL
- No. CFU (×10^3)/mL ± SD, 4 hr ([1]; single dose, peripheral blood, 4 hr post dose (TABLE 10)): 0.82 ± 0.47 (×10^3)/mL
- No. CFU (×10^3)/mL ± SD, 6 hr [1, 7]: 0.08 ± 0.11 (×10^3)/mL
- No. CFU (×10^3)/mL ± SD, 6 hr ([1]; single dose, peripheral blood, 6 hr post dose (TABLE 10)): 0.25 ± 0.16 (×10^3)/mL

- IC50 (VLA-4 (a4b1); [4]): 0.155 nM
- IC50 (VLA-4 (a4b1); [2]): 0.155 nM
SMILES: COCCOCCOCCOCCOCCOCCOCCOCCSCc1cc(OC)c(-c2ccc(C[C@H](NC(=O)[C@@H]3CCCN3S(=O)(=O)c3cc(Cl)cc(Cl)c3)C(=O)O)cc2)c(OC)c1 [Example C16]
- No. CFU (x10^3)/mL ± SD, 2 hr ([1]; single dose, peripheral blood): 2.34 ± 0.55 (x10^3)/mL
- No. CFU (x10^3)/mL ± SD, 4 hr ([1]; single dose, peripheral blood): 1.14 ± 0.86 (x10^3)/mL
- No. CFU (x10^3)/mL ± SD, 6 hr ([1]; single dose, peripheral blood): 0.38 ± 0.24 (x10^3)/mL
- No. CFU (x10^3)/mL ± SD, 24 hr ([1]; single dose, peripheral blood): 0.14 ± 0.06 (x10^3)/mL

- IC50 (VLA-4 (a4b1); [8]): 98.7 nM
- IC50 (VLA-4 (a4b1); [2]): 98.7 nM
SMILES: Cc1cccc(Cl)c1C(=O)N[C@@H](Cc1ccc(NC(=O)c2c(Cl)cccc2Cl)cc1)C(=O)O [RO0270608]
- HSPC mobilization, result in words ([1]; single dose): lack of any appreciable HSC mobilization
- No. CFU (×10^3)/mL ± SD, 1 hr ([1]; single dose, peripheral blood): 0.64 ± 0.41 (×10^3)/mL
- No. CFU (×10^3)/mL ± SD, 4 hr [1, 9]: 0.19 ± 0.06 (×10^3)/mL
- No. CFU (×10^3)/mL ± SD, 8 hr ([1]; single dose, peripheral blood): 0.11 ± 0.05 (×10^3)/mL

- IC50 (VLA-4 (a4b1); [8]): 247 nM
- IC50 (VLA-4 (a4b1); [2]): 247 nM
SMILES: COc1cccc(OC)c1-c1ccc(C[C@H](NC(=O)c2c(Cl)cccc2Cl)C(=O)O)cc1 [TR-14035]
- No. CFU (×10^3)/mL ± SD, 1 hr ([1]; single dose, peripheral blood): 0.54 ± 0.15 (×10^3)/mL
- No. CFU (×10^3)/mL ± SD, 4 hr [1, 9]: 0.18 ± 0.13 (×10^3)/mL
- No. CFU (×10^3)/mL ± SD, 8 hr ([1]; single dose, peripheral blood): 0.10 ± 0.05 (×10^3)/mL
